How the values were obtained:
Type in all cases: in vivo
barnyard grass = assay: Post-emergent MBI-005 + Propanil on barnyard grass (Example 20); details: 14 days
Protocol: Negative controls were sprayed with water. Pots were randomly placed in a growth room at 25° C. and 50% RH, and watered as necessary. Treatments were replicated three times and evaluated at 7 and 14 days for visual % damage, with 0% indicating no damage and 100% indicating plant death.
(§1) Synergy was calculated as the ratio of observed (E) to expected (E/Ee) percent control using Colby's formula.

Rice (variety M209) = assay: Field study on rice, yield (Example 6); details: Thaxtomin A 180 g/acre
Protocol: The efficacy of thaxtomin A derived from a liquid culture of S. acidiscabies is tested in a field study on rice using 4.9 sq-ft plots surrounded by a metal ring. Treatments with either thaxtomin A or thaxtomin A in combination with lemongrass oil (formulated as GreenMatch EX) or cyhalofop (formulated as Clincher CA) were done using a hand-held sprayer with a water volume corresponding to 57 gallons per acre. Rice (variety M209) was grown until maturity and harvested by hand for yield and weed count assessment. Results of yield (kg/ha), and numbers of redstem, small-flower umbrella sedge, and sprangletop in each plot are presented in Table 3 below.

crabgrass [1] = assay: Crabgrass seed germination, MBI-005 + m-Tyrosine (Example 15); details: MBI-005 at 0.0035 mg/mL, 7 DAT
Protocol: Forty-five seeds were placed on a ring of blotter paper inside a 3 cm petri dish, covered with 10 cm^3 of inert baked clay particle media and supplied with 7 ml of 0.035 mg/ml MBI-005, a m-Tyrosine concentration, or a combination of MBI-005 and m-Tyrosine (Table 14). Water was used as a negative control. Petri dishes were randomly placed in a growth room at 25° C. and 50% RH. Treatments were replicated three times and germinated seeds were counted 7 days after application; water was added as necessary to maintain moisture levels inside each petri dish.
Synergy was calculated as the ratio of observed (E) to expected (E/Ee) reduction in germination using Colby's formula.

[2] = test system: wheat (Triticum aestivum var. PR1404); assay: Pot study, phytotoxicity on wheat (Example 2); details: 0.5 and 1.0 mg/mL, 7, 14 and 21 days after treatment
Protocol: A pot study is conducted to test the phytotoxicity of thaxtomin A on corn (Zea mays var. Early Sunglow) and wheat (Triticum aestivum var. PR1404). To confirm the activity on broadleaf weeds, pigweed (Amaranthus sp.) is planted in the same pot with either three corn or five wheat seeds, and sprayed simultaneously with the cereal test plants. The less than 3-inch tall plants grown under growth lights (12-h light/12-h dark) at 28° C. are sprayed with thaxtomin A solutions derived from a liquid culture of S. acidiscabies containing 0.5, and 1.0 mg thaxtomin A per mL of solvent (4% ethanol and 0.2% non-ionic surfactant). A solution of 4% ethanol +0.2% non-ionic surfactant without thaxtomin A is used as a control treatment. Each treatment is conducted in three replicates. Treated plants are kept at 28° C. under growth lights and observed at three time points—7, 14 and 21 days after treatment—for visual symptoms of phytotoxicity on corn and wheat and % control of pigweed.

crabgrass [3] = assay: Post-emergent MBI-005 + Atrazine on crabgrass (Example 17); details: for AVG E (visual % damage): 7DAT; for AVG/ E (visual % damage): 14DAT
Protocol: Ten seedlings in 2.5 cm square pots containing plant growth mix were sprayed with two suboptimal rates of MBI-005, and 35% of the atrazine label rate (0.3 gallons/A), or a combination thereof, at a volume of 40 gal/A using a cabinet track sprayer. Negative controls were sprayed with water. Pots were randomly placed in a growth room at 25° C. and 50% RH, and watered as necessary. Treatments were replicated five times and evaluated at 7 and 14 days for visual % damage, with 0% indicating no damage and 100% indicating plant death.
as §1

[4] = 12.5% MBI-005 Label Rate (0.125 mg/mL)
[5] = 25% MBI-005 Label Rate (0.25 mg/mL)

For `CN1C(=O)[C@](O)(Cc2cccc(O)c2)N(C)C(=O)[C@@H]1Cc1c[nH]c2cccc([N+](=O)[O-])c12` [thaxtomin A], the “Observed Average % Efficacy (E)” value (barnyard grass; 12.5% MBI-005 (of label rate)) was 10.0%, the “Observed Average % Efficacy (E)” value (barnyard grass; 25% MBI-005 (of label rate)) was 20.0% and the “Yield (kg/ha)” value (Rice (variety M209); listed as Thaxtomin A) was 7876b kg/ha. For the same molecule, the “Yield (kg/ha)” value (Rice (variety M209); listed as thaxtomin) was “no effect”, the “E (% controlled compared to UTC)” value (crabgrass [1]) was 14.3% and the “AVG No. germinated” value (crabgrass [1]; forty-five seeds) was 38.0. For the same molecule, the symptoms of phytotoxicity [2] was “no symptoms of phytotoxicity are observed”, the “AVG E (visual % damage)” value (crabgrass [3]; [4]) was 10.0% and the “AVG E (visual % damage)” value (crabgrass [3]; [5]) was 11.9%. For the same molecule, the “AVG/ E (visual % damage)” value (crabgrass [3]; [4]) was 10.0% and the “AVG/ E (visual % damage)” value (crabgrass [3]; [5]) was 11.9%.

Reference: patent US9066516B2, “Uses of thaxtomin and thaxtomin compositions as herbicides” (priority 2008, dated 2015)
